In one assay the test system is BxPC-3 cells. The assay can be described thus: On-Cell ELISA binding, BxPC3 cells (TROP2 high). The assay is classed as cell-based, human. Further details: AUC (BxPC-3): unit not given beside the values. The following applies: for EC50: On-Cell ELISA, TROP2 high cells; for ΔAUC: AUC (BxPC-3) minus AUC (MDA-MB-231-KWL); for AUC (BxPC-3): area under On-Cell ELISA binding curve; for ΔAUC/AUC (BxPC-3): differential BxPC3 vs MDA-MB-231-KWL. How it is done:
(§1) Cell lines expressing TROP2.
(§2) Cells were plated in duplicate onto 96-well plates, and primary antibody was diluted in cell culture medium with a starting concentration of 30 μg/mL (200 nM) with a dilution factor of 1:5. After 3× wash, secondary antibody was added for 1 hour at 1 ug/ml, washed three times and absorbance was measured at 450 nm. Data was plotted and analyzed. EC50 ([…]) was measured along with area under the curve (AUC) for each cell line.
A general note: In an ELISA, binding on a coated surface is turned into a signal by an enzyme label.

Another assay relates to MDA-MB-231-KWL cells. Nature of the assay: On-Cell ELISA binding, MDA-MB-231-KWL cells (TROP2 low). As to conditions: for EC50: read-out: MDA-MB-231-KWL EC50, On-Cell ELISA, TROP2 low cells; for AUC (MDA-MB-231-KWL): area under On-Cell ELISA binding curve. The assay is classed as cell-based. Further details: AUC (MDA-MB-231-KWL): unit not given beside the values. As for the experimental part: as §1, §2

Usually EC50 stands for the concentration at which the effect is half-maximal. Turning to “mAb_LC_Hm_F29G: Sacituzumab HC F29G mutein, Sacituzumab LC”, the EC50 in the assay on BxPC-3 cells stood at 0.32 nM; with MDA-MB-231-KWL cells it was 0.448 nM.
For “mAb_LC_Hm_F101E: Sacituzumab HC F101E mutein, Sacituzumab LC” the same measures were 0.482 nM and 2.69 nM.
For “mAb_LC_Hm_F101T: Sacituzumab HC F101T mutein, Sacituzumab LC” the same measures were 0.336 nM and 0.871 nM.
For “mAb_LC_Hm_F108Q: Sacituzumab HC F108Q mutein, Sacituzumab LC” the same measures were 0.316 nM and 0.365 nM.
Consider “mAb_LC_Hm_F108S: Sacituzumab HC F108S mutein, Sacituzumab LC”, for which the EC50 in the assay with BxPC-3 cells amounted to 0.321 nM; in the assay on MDA-MB-231-KWL cells it was 0.651 nM.
“mAb_LC_Hm_F108T: Sacituzumab HC F108T mutein, Sacituzumab LC”: the results for the EC50 with BxPC-3 cells and in the assay with MDA-MB-231-KWL cells were 0.681 nM and 1.2 nM, respectively.
For “mAb_LC_Hm_G33I: Sacituzumab HC G33I mutein, Sacituzumab LC” the same measures were 0.217 nM and 0.768 nM.
“mAb_LC_Hm_G33S: Sacituzumab HC G33S mutein, Sacituzumab LC”: the 50% effective concentration (EC50) with BxPC-3 cells stood at 2.24 nM.
For the substance “mAb_LC_Hm_N31P: Sacituzumab HC N31P mutein, Sacituzumab LC”, the EC50 worked out at 0.369 nM in the assay with BxPC-3 cells and 1.16 nM in the assay on MDA-MB-231-KWL cells.
As for “mAb_LC_Hm_S103T: Sacituzumab HC S103T mutein, Sacituzumab LC”, in the assay with BxPC-3 cells, the ΔAUC is reported as 171.04, the “AUC (BxPC-3)” value is given as 204.7 and the “ΔAUC/AUC (BxPC-3)” value was 0.538. In addition, in the assay with MDA-MB-231-KWL cells, the “AUC (MDA-MB-231-KWL)” value was 33.66.
Substance “mAb_LC_Hm_S104D: Sacituzumab HC S104D mutein, Sacituzumab LC” registered an EC50 with BxPC-3 cells of 0.214 nM.
The same measure, in the same setting: the same measure for “mAb_LC_Hm_W106A: Sacituzumab HC W106A mutein, Sacituzumab LC”: 1.68 nM.
In the case of “mAb_LC_Hm_W106H: Sacituzumab HC W106H mutein, Sacituzumab LC”, in the assay on BxPC-3 cells, the ΔAUC amounted to 192.47, the EC50 was determined as 1.16 nM, the “AUC (BxPC-3)” value is reported as 215.2 and the “ΔAUC/AUC (BxPC-3)” value is listed as 0.605. Besides, in the assay with MDA-MB-231-KWL cells, the “AUC (MDA-MB-231-KWL)” value is 22.73.
“mAb_LC_Hm_W106L: Sacituzumab HC W106L mutein, Sacituzumab LC” came in with an EC50 in the assay on BxPC-3 cells of 0.326 nM.
On to “mAb_LC_Hm_Y32E: Sacituzumab HC Y32E mutein, Sacituzumab LC”, for which the 50% effective concentration (EC50) in the assay with BxPC-3 cells amounted to 0.416 nM; in the assay with MDA-MB-231-KWL cells, 1.58 nM.
Regarding “mAb_LC_Hm_Y105S: Sacituzumab HC Y105S mutein, Sacituzumab LC”, in the assay with BxPC-3 cells, it took 0.312 nM to reach a half-maximal effect (EC50).
As to “mAb_LC_Hm_Y107N: Sacituzumab HC Y107N mutein, Sacituzumab LC”, the values for the EC50 in the assay on BxPC-3 cells and in the assay on MDA-MB-231-KWL cells were 0.715 nM and 1.88 nM, respectively.
In turn, “mAb_Lm_A32P_HC: Sacituzumab LC A32P mutein, Sacituzumab HC” returned an EC50 in the assay on BxPC-3 cells of 0.922 nM.
The same measure, in the same setting: in the case of “mAb_Lm_A32Q_HC: Sacituzumab LC A32Q mutein, Sacituzumab HC” it was 18.4 nM.
With “mAb_Lm_D28H_HC: Sacituzumab LC D28H mutein, Sacituzumab HC”, the half-maximal effective concentration (EC50) with BxPC-3 cells was 0.159 nM; in the assay on MDA-MB-231-KWL cells, 0.136 nM.
For “mAb_Lm_H91K_HC: Sacituzumab LC H91K mutein, Sacituzumab HC” the same measures were 0.899 nM and 1.96 nM.
In turn, “mAb_Lm_H91Y_HC: Sacituzumab LC H91Y mutein, Sacituzumab HC” came in with an EC50 with BxPC-3 cells of 3.56 nM.
Regarding “mAb_Lm_I93G_HC: Sacituzumab LC I93G mutein, Sacituzumab HC”, the results for the concentration for a half-maximal effect (EC50) with BxPC-3 cells and in the assay on MDA-MB-231-KWL cells were 0.182 nM and 0.221 nM, respectively.
For “mAb_Lm_Q89V_HC: Sacituzumab LC Q89V mutein, Sacituzumab HC” the same measures were 1.68 nM and 8.46 nM.
“mAb_Lm_S30R_HC: Sacituzumab LC S30R mutein, Sacituzumab HC” showed an EC50 in the assay on BxPC-3 cells of 0.697 nM.
Same read-out and setting: in the case of “mAb_Lm_S50L_HC: Sacituzumab LC S50L mutein, Sacituzumab HC” it was 23.8 nM.
Regarding “mAb_Lm_S50T_HC: Sacituzumab LC S50T mutein, Sacituzumab HC”, the figures for the EC50 in the assay with BxPC-3 cells and in the assay with MDA-MB-231-KWL cells were 0.222 nM and 0.568 nM, respectively.
For “mAb_Lm_T94F_HC: Sacituzumab LC T94F mutein, Sacituzumab HC” the same measures were 0.233 nM and 0.374 nM.
Turning to “mAb_Lm_V29R_HC: Sacituzumab LC V29R mutein, Sacituzumab HC”, the EC50 in the assay on BxPC-3 cells stood at 0.285 nM.
For “mAb_Lm_Y53D_HC: Sacituzumab LC Y53D mutein, Sacituzumab HC; HC SEQ ID NO: 11, LC SEQ ID NO: 13”, the 50% effective concentration (EC50) with BxPC-3 cells came to 0.238 nM; in the assay on MDA-MB-231-KWL cells it was 4.89 nM.
For “mAb_Lm_Y53N_HC: Sacituzumab LC Y53N mutein, Sacituzumab HC” the same measures were 0.225 nM and 0.843 nM.
For “mAb_Lm_Y53P_HC: Sacituzumab LC Y53P mutein, Sacituzumab HC” the same measures were 0.218 nM and 0.629 nM.
For “mAb_Lm_Y53R_HC: Sacituzumab LC Y53R mutein, Sacituzumab HC” the same measures were 0.357 nM and 0.546 nM.
As to “mAb_Lm_Y53S_HC: Sacituzumab LC Y53S mutein, Sacituzumab HC”, the EC50 in the assay with BxPC-3 cells was determined as 0.28 nM; in the assay on MDA-MB-231-KWL cells, 0.304 nM.
For “mAb_Lm_Y53V_HC: Sacituzumab LC Y53V mutein, Sacituzumab HC” the same measures were 0.225 nM and 0.343 nM.
Substance “mAb_Lm_Y92A_HC: Sacituzumab LC Y92A mutein, Sacituzumab HC” had an EC50 in the assay on BxPC-3 cells of 9.2 nM.
The same measure, in the same setting: in the case of “mAb_Lm_Y92E_HC: Sacituzumab LC Y92E mutein, Sacituzumab HC” it was 6.95 nM; in that of “mAb_Lm_Y92N_HC: Sacituzumab LC Y92N mutein, Sacituzumab HC”, 0.839 nM.
